≈ marks a conversion by molar mass, not a printed value.
Key:
PAO1 + blaPDC A200T = assay: MIC, broth microdilution; type: cell-based; settings: Pseudomonas aeruginosa
Text: (§1) We took advantage of a previously constructed and characterized laboratory collection of recombinant P. aeruginosa PAO1 isolates expressing different blaPDC variants, but specifically enriched for this work with additional variants, following the previously described methodology ([17]). […] The final collection comprised 40 recombinant isolates (20 in PAO1 and 20 in PAO ΔpiuC) producing the wild-type PDC-1 variant from PAO1 and 19 derivatives carrying specific amino acid substitutions previously associated with the development of resistance to ceftazidime/avibactam, ceftolozane/tazobactam, or cefiderocol: T70I, F121L, P153L, G156D, A200T, G202S, ΔG202-E219, G214R, P215L, P215S, ΔP215-G222, D217N, E219K, E219G, E219D, S226ins, L293P, F121L + E219K, and F121L + G222S.
(§2) The MICs of ceftazidime, ceftazidime/avibactam, ceftolozane/tazobactam, cefepime, and cefiderocol were determined in triplicate, for all isolates, by reference broth microdilution assays. Avibactam and tazobactam were fixed at 4 mg/L. All assays were performed using cation-adjusted Mueller-Hinton broth (CAMHB), except for cefiderocol, which was determined in all cases using iron-depleted CAMHB, prepared according to CLSI M100 guidelines ([40]). EUCAST v.15.0 clinical breakpoints and guidelines (http://www.eucast.org/clinical_breakpoints/) were used for reference purposes. Reference strains Escherichia coli ATCC 25922, Klebsiella pneumoniae ATCC 700603, and P. aeruginosa ATCC 27853 were used as controls.

PAO1 + blaPDC D217N = assay: MIC, broth microdilution; type: cell-based; settings: Pseudomonas aeruginosa
Text: as §1, §2

PAO1 + blaPDC E219D = assay: MIC, broth microdilution; type: cell-based; settings: Pseudomonas aeruginosa
Text: as §1, §2

PAO1 + blaPDC E219G = assay: MIC, broth microdilution; type: cell-based; settings: Pseudomonas aeruginosa
Text: as §1, §2

PAO1 + blaPDC E219K = assay: MIC, broth microdilution; type: cell-based; settings: Pseudomonas aeruginosa
Text: as §1, §2

[1] = tested on: PAO1 + blaPDC F121L + E219K; assay: MIC, broth microdilution; type: cell-based; settings: Pseudomonas aeruginosa
Text: as §1, §2

PAO1 + blaPDC F121L = assay: MIC, broth microdilution; type: cell-based; settings: Pseudomonas aeruginosa
Text: as §1, §2

PAO1 + blaPDC G156D = assay: MIC, broth microdilution; type: cell-based; settings: Pseudomonas aeruginosa
Text: as §1, §2

PAO1 + blaPDC G202S = assay: MIC, broth microdilution; type: cell-based; settings: Pseudomonas aeruginosa
Text: as §1, §2

PAO1 + blaPDC G214R = assay: MIC, broth microdilution; type: cell-based; settings: Pseudomonas aeruginosa
Text: as §1, §2

PAO1 + blaPDC L293P = assay: MIC, broth microdilution; type: cell-based; settings: Pseudomonas aeruginosa
Text: as §1, §2

PAO1 + blaPDC P153L = assay: MIC, broth microdilution; type: cell-based; settings: Pseudomonas aeruginosa
Text: as §1, §2

PAO1 + blaPDC P215L = assay: MIC, broth microdilution; type: cell-based; settings: Pseudomonas aeruginosa
Text: as §1, §2

PAO1 + blaPDC P215S = assay: MIC, broth microdilution; type: cell-based; settings: Pseudomonas aeruginosa
Text: as §1, §2

PAO1 + blaPDC S226ins = assay: MIC, broth microdilution; type: cell-based; settings: Pseudomonas aeruginosa, avibactam and tazobactam fixed at 4 mg/L, FDC in iron-depleted CAMHB
Text: as §1, §2

PAO1 + blaPDC T70I = assay: MIC, broth microdilution; type: cell-based; settings: Pseudomonas aeruginosa
Text: as §1, §2

PAO1 + blaPDC ∆G202-E219 = assay: MIC, broth microdilution; type: cell-based; settings: Pseudomonas aeruginosa, avibactam and tazobactam fixed at 4 mg/L, FDC in iron-depleted CAMHB
Text: as §1, §2

PAO1 + blaPDC ∆P215-G222 = assay: MIC, broth microdilution; type: cell-based; settings: Pseudomonas aeruginosa, avibactam and tazobactam fixed at 4 mg/L, FDC in iron-depleted CAMHB
Text: as §1, §2

PAO1 + blaPDC-1 (WT) = assay: MIC, broth microdilution; type: cell-based; settings: Pseudomonas aeruginosa, avibactam and tazobactam fixed at 4 mg/L, FDC in iron-depleted CAMHB
Text: as §1, §2

PAO1 = assay: MIC, broth microdilution; type: cell-based; settings: Pseudomonas aeruginosa; PAO1 wild type, no plasmid-borne PDC; avibactam and tazobactam fixed at 4 mg/L; FDC in iron-depleted CAMHB
Text: as §1, §2

[2] = tested on: PAO1 + blaPDC F121L + G220S; assay: MIC, broth microdilution; type: cell-based; settings: Pseudomonas aeruginosa
PDC-1 (WT) = PDC-1 (WT) (Pseudomonas aeruginosa, UniProt P24735); assay: Steady-state kinetics of purified β-lactamase; settings: kcat/Km relative to PDC-1 (reference = 1)
PDC E219K = PDC E219K (Pseudomonas aeruginosa, UniProt P24735, E247K); assay: Steady-state kinetics of purified β-lactamase; settings: for Km / kcat: PDC E219K, 10 mM PBS, pH 7.4, room temperature; for Km: antibiotics: determined as Ki app with nitrocefin as reporter substrate; for kcat: direct hydrolysis at substrate concentration at least three times the Km; for Ratio for PDC E219K/PDC-1: ratio of kcat/Km (fold change in catalytic efficiency)
PDC L293P = PDC L293P (Pseudomonas aeruginosa, UniProt P24735, L320P); assay: Steady-state kinetics of purified β-lactamase; settings: for Km / kcat: PDC L293P, 10 mM PBS, pH 7.4, room temperature; for Km: antibiotics: determined as Ki app with nitrocefin as reporter substrate; for kcat: direct hydrolysis at substrate concentration at least three times the Km; for Ratio for PDC L293P/PDC-1: ratio of kcat/Km (fold change in catalytic efficiency)
[3] = tested on: CC(C)(O/N=C(\C(=O)N[C@@H]1C(=O)N2C(C(=O)[O-])=C(C[N+]3(CCNC(=O)c4ccc(O)c(O)c4Cl)CCCC3)CS[C@H]12)c1csc(N)n1)C(=O)O; assay: purified protein, by the assay type; settings: other: PDC-1 (WT), antibiotics: determined as Ki app with nitrocefin as reporter substrate, 10 mM PBS, pH 7.4, room temperature
[4] = tested on: CC(C)(O/N=C(\C(=O)N[C@@H]1C(=O)N2C(C(=O)[O-])=C(C[n+]3ccccc3)CS[C@H]12)c1csc(N)n1)C(=O)O; assay: purified protein, by the assay type; settings: other: PDC-1 (WT), antibiotics: determined as Ki app with nitrocefin as reporter substrate, 10 mM PBS, pH 7.4, room temperature
[5] = tested on: CO/N=C(\C(=O)N[C@@H]1C(=O)N2C(C(=O)[O-])=C(C[N+]3(C)CCCC3)CS[C@H]12)c1csc(N)n1; assay: purified protein, by the assay type; settings: other: PDC-1 (WT), antibiotics: determined as Ki app with nitrocefin as reporter substrate, 10 mM PBS, pH 7.4, room temperature
[6] = tested on: Cn1c(N)c(NC(=O)NCCN)c[n+]1CC1=C(C(=O)O)N2C(=O)[C@@H](NC(=O)/C(=N\OC(C)(C)C(=O)[O-])c3nsc(N)n3)[C@H]2SC1; assay: purified protein, by the assay type; settings: other: PDC-1 (WT), antibiotics: determined as Ki app with nitrocefin as reporter substrate, 10 mM PBS, pH 7.4, room temperature
[7] = tested on: O=C(Cc1cccs1)N[C@@H]1C(=O)N2C(C(=O)O)=C(/C=C/c3ccc([N+](=O)[O-])cc3[N+](=O)[O-])CS[C@H]12; assay: purified protein, by the assay type; settings: other: PDC-1 (WT), antibiotics: determined as Ki app with nitrocefin as reporter substrate, 10 mM PBS, pH 7.4, room temperature

CO/N=C(\C(=O)N[C@@H]1C(=O)N2C(C(=O)[O-])=C(C[N+]3(C)CCCC3)CS[C@H]12)c1csc(N)n1 [FEP, cefepime]
MIC (PAO1 + blaPDC A200T): 16 µg/mL (≈ 33.3 µM)
MIC (PAO1 + blaPDC D217N): 16 µg/mL (≈ 33.3 µM)
MIC (PAO1 + blaPDC E219D): 8 µg/mL (≈ 16.6 µM)
MIC (PAO1 + blaPDC E219G): 4 µg/mL (≈ 8.32 µM)
MIC (PAO1 + blaPDC E219K): 32 µg/mL (≈ 66.6 µM)
MIC [1]: 32 µg/mL (≈ 66.6 µM)
MIC (PAO1 + blaPDC F121L): 16 µg/mL (≈ 33.3 µM)
MIC (PAO1 + blaPDC G156D): 4 µg/mL (≈ 8.32 µM)
MIC (PAO1 + blaPDC G202S): 16 µg/mL (≈ 33.3 µM)
MIC (PAO1 + blaPDC G214R): 16 µg/mL (≈ 33.3 µM)
MIC (PAO1 + blaPDC L293P): 128 µg/mL (≈ 266 µM)
MIC (PAO1 + blaPDC P153L): 32 µg/mL (≈ 66.6 µM)
MIC (PAO1 + blaPDC P215L): 8 µg/mL (≈ 16.6 µM)
MIC (PAO1 + blaPDC P215S): 8 µg/mL (≈ 16.6 µM)
MIC (PAO1 + blaPDC S226ins): 8 µg/mL
MIC (PAO1 + blaPDC T70I): 16 µg/mL (≈ 33.3 µM)
MIC (PAO1 + blaPDC ∆G202-E219): 8 µg/mL
MIC (PAO1 + blaPDC ∆P215-G222): 32 µg/mL
MIC (PAO1 + blaPDC-1 (WT)): 16 µg/mL
MIC (PAO1): 2 µg/mL
MIC [2]: 32 µg/mL (≈ 66.6 µM)
Ratio (PDC-1 (WT)): 1
Km (PDC E219K): 92.5 ± 26.3 µM
kcat (PDC E219K): 0.25 ± 0.06 s⁻¹
Ratio for PDC E219K/PDC-1 (PDC E219K): 2.57
improvement in substrate binding affinity (Km decrease) (PDC L293P; PDC L293P relative to PDC-1): ≈ 29 fold
Km (PDC L293P): 4.58 ± 0.42 µM
kcat (PDC L293P): 0.189 ± 0.007 s⁻¹
Ratio for PDC L293P/PDC-1 (PDC L293P): 39.29

O=C(Cc1cccs1)N[C@@H]1C(=O)N2C(C(=O)O)=C(/C=C/c3ccc([N+](=O)[O-])cc3[N+](=O)[O-])CS[C@H]12 [Nitrocefin, nitrocefin]
Ratio (PDC-1 (WT)): 1
Km (PDC E219K): 24.1 ± 4.01 µM
kcat (PDC E219K): 4.41 ± 0.18 s⁻¹
Ratio for PDC E219K/PDC-1 (PDC E219K): 0.12
Km (PDC L293P): 6.71 ± 1.28 µM
kcat (PDC L293P): 18.77 ± 4.37 s⁻¹
Ratio for PDC L293P/PDC-1 (PDC L293P): 1.80

PDC-1 (WT) (Pseudomonas aeruginosa PAO1)
Km [3]: 85.29 ± 9.48 µM
kcat [3]: 0.0036 ± 0.0007 s⁻¹
kcat/Km [3]: 40 M⁻¹ s⁻¹
Km [4]: 18.08 ± 0.88 µM
kcat [4]: 0.0082 ± 0.0007 s⁻¹
kcat/Km [4]: 450 M⁻¹ s⁻¹
Km [5]: 132.06 ± 23.69 µM
kcat [5]: 0.138 ± 0.009 s⁻¹
kcat/Km [5]: 1050 M⁻¹ s⁻¹
Km [6]: 554.08 ± 3.00 µM
kcat [6]: 0.0715 ± 0.0006 s⁻¹
kcat/Km [6]: 130 M⁻¹ s⁻¹
Km [7]: 13.98 ± 0.80 µM
kcat [7]: 21.9 ± 6.5 s⁻¹
kcat/Km [7]: 1.55e+06 ± 380000 M⁻¹ s⁻¹

From PMC12217463, “Functional and structural analyses of amino acid sequence variation in PDC β-lactamase reveal different mechanistic pathways toward cefiderocol resistance in Pseudomonas aeruginosa” (Antimicrobial Agents and Chemotherapy, 2025)
